From ChEMBL document CHEMBL1131360, “Bis-S-acyl-2-thioethyl (SATE)-bearing monophosphate prodrug of beta-L-FD4C as potent anti-HBV agent” (Bioorg Med Chem Lett, 1998)

Columns and labels:
M109 [1] = experiment: Tested for cytotoxicity in murine lung carcinoma (M109); format: functional, cell-based; details: Mus musculus
HepG2 [2] = experiment: Tested for cytotoxicity in human hepatoma cell (2.2.15); format: functional, cell-based
B16 [3] = experiment: Tested for cytotoxicity in murine melanoma (B16); format: functional, cell-based; details: Mus musculus
Colon 26 [4] = experiment: Tested for cytotoxicity in murine colon cancer (C26); format: functional, cell-based; details: Mus musculus
CCRF-CEM = experiment: Tested for cytotoxicity in human T-cell lymphoblastic leukemia cell line (CEM); format: functional, cell-based
B16 [5] = experiment: Tested for cytotoxicity in murine melanoma (B16); not cytotoxic at the highest concentration tested (70 uM); format: functional, cell-based, Mus musculus
Colon 26 [6] = experiment: Tested for cytotoxicity in murine colon cancer (C26); not cytotoxic at the highest concentration tested (70 uM); format: functional, cell-based, Mus musculus
M109 [7] = experiment: Tested for cytotoxicity in murine lung carcinoma (M109); not cytotoxic at the highest concentration tested (70 uM); format: functional, cell-based, Mus musculus
HepG2 [8] = experiment: Tested for effective concentration against HBV treated with drug every 3 days for 9 days using human hepatoblastoma cell line HepG2 2.2.15; format: functional, cell-based
HepG2 [9] = experiment: Tested for the ability to inhibit HBV replication at a concentration of 40 nM using human hepatoblastoma cell line HepG2 2.2.15; format: functional
HepG2 [10] = experiment: Tested for cytotoxicity in human hepatoma cell (2.2.15); not cytotoxic at the highest concentration tested (70 uM); format: functional, cell-based
HepG2 [11] = experiment: Tested for the ability to inhibit HBV DNA synthesis at a concentration of 7 nM using human hepatoblastoma cell line HepG2 2.2.15; format: functional
HepG2 [12] = experiment: Tested for the ability to inhibit HBV replication at a concentration of 19 nM using human hepatoblastoma cell line HepG2 2.2.15; format: functional
HepG2 [13] = experiment: Tested for the ability to inhibit extracellular HBV DNA synthesis at a concentration of 10 nM; format: functional; details: Homo sapiens
HepG2 [14] = experiment: Tested for the ability to inhibit HBV DNA synthesis at a concentration of 4 nM using human hepatoblastoma cell line HepG2 2.2.15; format: functional

In the case of `CC(=O)SCCOP(=O)(OCCS)OC[C@H]1C=C[C@@H](n2cc(F)c(N)nc2=O)O1` (some centres not stated), the IC50 (M109 [1]) is reported as greater than 70 µM, the IC50 (HepG2 [2]) is reported as greater than 70 µM and the IC50 (B16 [3]) is reported as greater than 70 µM. It also gave an IC50 (Colon 26 [4]) greater than 70 µM and an IC50 (CCRF-CEM) of 52 µM.
With `Nc1nc(=O)n([C@@H]2C=C[C@H](CO)O2)cc1F` [ELVUCITABINE] the IC50 (B16 [5]) was “Not Active”, the IC50 (Colon 26 [6]) was “Not Active” and the IC50 (M109 [7]) was “Not Active”. For the same molecule, the EC50 (HepG2 [8]) was 0.017 µM, the inhibition at 0.04 µM (HepG2 [9]) was 70% and the IC50 (HepG2 [10]) was “Not Active”. The IC50 (CCRF-CEM) was 13 µM and the inhibition at 0.007 µM (HepG2 [11]) was 50%.
In the case of `CC(=O)SCCOP(=O)(OCCSC(C)=O)OC[C@H]1CC[C@@H](n2cnc3c(N)ncnc32)O1`, the IC50 (M109 [1]) is reported as greater than 70 µM, the IC50 (HepG2 [2]) is reported as greater than 70 µM and the IC50 (B16 [3]) is reported as greater than 70 µM. It also gave an IC50 (Colon 26 [4]) greater than 70 µM and an IC50 (CCRF-CEM) of 13 µM.
In the case of `CC(=O)SCCOP(=O)(OCCSC(C)=O)OC[C@H]1C=C[C@@H](n2cc(F)c(N)nc2=O)O1`, the IC50 (B16 [5]) is reported as “Not Active”, the inhibition at 0.019 µM (HepG2 [12]) is reported as 90% and the IC50 (Colon 26 [6]) is reported as “Not Active”. The IC50 (M109 [7]) was “Not Active”, the EC50 (HepG2 [8]) was 0.002 µM and the IC50 (HepG2 [10]) was “Not Active”. It also gave an IC50 (CCRF-CEM) of 52 µM, an inhibition at 0.01 µM (HepG2 [13]) of 85% and an inhibition at 0.004 µM (HepG2 [14]) of 50%.
